Data as given in US7166738B2, “Non-nucleoside reverse transcriptase inhibitors” (Roche Palo Alto LLC, priority 2004, dated 2007).

SMILES | melting point
COc1ccc(CC(=O)Nc2ccc(S(N)(=O)=O)cc2Cl)c(F)c1Oc1cc(Cl)cc(C#N)c1 [Compound I-190, 2-[3-(3-Chloro-5-cyano-phenoxy)-2-fluoro-4-methoxy-phenyl]-N-(2-chloro-4-sulfamoyl-phenyl)-acetamide] | 212 to 212.8 °C
COc1ccc(CC(=O)Nc2ccc(S(N)(=O)=O)cc2C)cc1Oc1cc(C#N)ccc1Cl [Compound I-66, 2-[3-(2-Chloro-5-cyano-phenoxy)-4-methoxy-phenyl]-N-(2-methyl-4-sulfamoyl-phenyl)-acetamide] | 232.9 to 236.9 °C
Cc1cc(OCC[C@@H](O)CO)ccc1NC(=O)Cc1ccc(C)c(Oc2cc(Cl)cc(C#N)c2)c1 [Compound I-151, 2-[3-(3-Chloro-5-cyano-phenoxy)-4-methyl-phenyl]-N-[4-((R)-3,4-dihydroxy-butoxy)-2-methyl-phenyl]-acetamide] | 104.9 to 106.4 °C
CCc1ccc(CC(=O)Nc2ccccc2Cl)cc1Oc1cc(Cl)ccc1Br [Compound I-16, 2-[3-(2-Bromo-5-chloro-phenoxy)-4-ethyl-phenyl]-N-(2-chloro-phenyl)-acetamide] | 154 to 155.5 °C
Cc1cc(S(=O)(=O)CCC(=O)O)ccc1NC(=O)Cc1ccc(C)c(Oc2cc(Cl)cc(C#N)c2)c1 [Compound I-125, 3-(4-{2-[3-(3-Chloro-5-cyano-phenoxy)-4-methyl-phenyl]-acetylamino}-3-methyl-benzenesulfonyl)-propionic acid] | 74.3 to 76.5 °C
N#Cc1cc(Oc2c(Cl)ccc(CC(=O)Nc3ccc(S(N)(=O)=O)cc3)c2F)cc(C(F)F)c1 [Compound I-13, 2-[4-Chloro-3-(3-cyano-5-difluoromethyl-phenoxy)-2-fluoro-phenyl]-N-(4-sulfamoyl-phenyl)-acetamide] | 214 to 218 °C
CCC(=O)NS(=O)(=O)c1ccc(NC(=O)Cc2ccc(Cl)c(Oc3cc(Cl)cc(C#N)c3)c2F)c(Cl)c1.[Na] | 155.4 to 157.5 °C
CCc1ccc(CC(=O)Nc2ccc(S(=O)(=O)NC)cc2)cc1Oc1cc(Cl)cc(C#N)c1 [Compound I-48, 2-[3-(3-Chloro-5-cyano-phenoxy)-4-ethyl-phenyl]-N-(4-methylsulfamoyl-phenyl)-acetamide] | 149.1 to 151.3 °C
CCc1ccc(CC(=O)Nc2ccc(S(N)(=O)=O)cc2C)cc1Oc1cc(Cl)cc(C#N)c1 [Compound I-46, 2-[3-(3-Chloro-5-cyano-phenoxy)-4-ethyl-phenyl]-N-(2-methyl-4-sulfamoyl-phenyl)-acetamide] | 189.1 to 189.4 °C
N#Cc1cc(Oc2c(Cl)ccc(CC(=O)Nc3ccccc3Cl)c2F)cc(C(F)F)c1 [Compound I-14, 2-[4-Chloro-3-(3-cyano-5-difluoromethyl-phenoxy)-2-fluoro-phenyl]-N-(2-chloro-phenyl)-acetamide] | 169.5 to 171 °C
Cc1cc(CC(=O)Nc2ccc(S(N)(=O)=O)cc2Cl)cc(Oc2cc(Cl)cc(C#N)c2)c1C [Compound I-184, 2-[3-(3-Chloro-5-cyano-phenoxy)-4,5-dimethyl-phenyl]-N-(2-chloro-4-sulfamoyl-phenyl)-acetamide] | 224.3 to 225.7 °C
CCc1ccc(CC(=O)Nc2ccc(S(N)(=O)=O)cc2C)cc1Oc1cc(Cl)cc(Br)c1Cl [Compound I-36, 2-[3-(3-Bromo-2,5-dichloro-phenoxy)-4-ethyl-phenyl]-N-(2-methyl-4-sulfamoyl-phenyl)-acetamide] | 213.2 to 219.6 °C
Cc1cc(N2CC[S+]([O-])CC2)ccc1NC(=O)Cc1ccc(C)c(Oc2cc(Cl)cc(C#N)c2)c1 [Compound I-160, 2-[3-(3-Chloro-5-cyano-phenoxy)-4-methyl-phenyl]-N-[2-methyl-4-(1-oxo-1λ^4-thiomorpholin-4-yl)-phenyl]-acetamide] | 181.3 to 182.1 °C
COCCC(=O)NS(=O)(=O)c1ccc(NC(=O)Cc2ccc(Cl)c(Oc3cc(Cl)cc(C#N)c3)c2F)c(Cl)c1.[Na] | 133.1 to 140.7 °C
Cc1ccc(CC(=O)Nc2ccc(S(N)(=O)=O)cc2Cl)cc1Oc1cc(Cl)cc(C#N)c1 [Compound I-123, 2-[3-(3-Chloro-5-cyano-phenoxy)-4-methyl-phenyl]-N-(2-chloro-4-sulfamoyl-phenyl)-acetamide] | 194 to 194.9 °C
COCCC(=O)N(C)S(=O)(=O)c1ccc(NC(=O)Cc2ccc(Cl)c(Oc3cc(Cl)cc(C#N)c3)c2F)c(Cl)c1 [Compound I-172, 2-[4-Chloro-3-(3-chloro-5-cyano-phenoxy)-2-fluoro-phenyl]-N-{2-chloro-4-[(3-methoxy-propionyl)-methyl-sulfamoyl]-phenyl}-acetamide] | 199.3 to 203 °C
Cc1cc(CC(=O)Nc2ccc(S(N)(=O)=O)cc2Cl)cc(Oc2cc(Cl)cc(C#N)c2)c1 [Compound I-143, 2-[3-(3-Chloro-5-cyano-phenoxy)-5-methyl-phenyl]-N-(2-chloro-4-sulfamoyl-phenyl)-acetamide] | 194.1 to 195.9 °C
Cc1cc(S(=O)(=O)NC2CCOCC2)ccc1NC(=O)Cc1ccc(C)c(Oc2cc(Cl)cc(C#N)c2)c1 [Compound I-128, 2-[3-(3-Chloro-5-cyano-phenoxy)-4-methyl-phenyl]-N-[2-methyl-4-(tetrahydro-pyran-4-ylsulfamoyl)-phenyl]-acetamide] | 171.7 to 172.6 °C

SMILES | melting point
CCc1ccc(CC(=O)Nc2ccccc2Cl)cc1Oc1cc(Cl)ccc1Cl [Compound I-21, N-(2-Chloro-phenyl)-2-[3-(2,5-dichloro-phenoxy)-4-ethyl-phenyl]-acetamide] | 146.3 to 147.1 °C
CCc1ccc(CC(=O)Nc2ccc(S(N)(=O)=O)cc2)cc1Oc1cc(C#N)cc(C(F)F)c1 [Compound I-91, 2-[3-(3-Cyano-5-difluoromethyl-phenoxy)-4-ethyl-phenyl]-N-(4-sulfamoyl-phenyl)-acetamide] | 188 to 198 °C
CCc1ccc(CC(=O)Nc2ccccc2Cl)cc1Oc1cc(Br)cc(Br)c1Cl [Compound I-38, N-(2-Chloro-phenyl)-2-[3-(3,5-dibromo-2-chloro-phenoxy)-4-ethyl-phenyl]-acetamide] | 155.5 to 155.8 °C
CCc1ccc(CC(=O)Nc2ccc(S(N)(=O)=O)cc2)cc1Oc1cc(Cl)ccc1C#N [Compound I-17, 2-[3-(5-Chloro-2-cyano-phenoxy)-4-ethyl-phenyl]-N-(4-sulfamoyl-phenyl)-acetamide] | 198.1 to 202.6 °C
Cc1cc(S(=O)(=O)CC(=O)O)ccc1NC(=O)Cc1ccc(C)c(Oc2cc(Cl)cc(C#N)c2)c1 [Compound I-152, (4-{2-[3-(3-Chloro-5-cyano-phenoxy)-4-methyl-phenyl]-acetylamino}-3-methyl-benzenesulfonyl)-acetic acid] | 180.5 to 181.4 °C
Cc1cc(S(N)(=O)=O)ccc1NC(=O)Cc1ccc(C)c(Oc2cc(C#N)cc(C#N)c2)c1 [Compound I-43, 2-[3-(3,5-Dicyano-phenoxy)-4-methyl-phenyl]-N-(2-methyl-4-sulfamoyl-phenyl)-acetamide] | 228.6 to 230.9 °C
CCc1ccc(CC(=O)Nc2ccc(S(N)(=O)=O)cc2C)cc1Oc1cc(C#N)cc(F)c1Cl [Compound I-50, 2-[3-(2-Chloro-5-cyano-3-fluoro-phenoxy)-4-ethyl-phenyl]-N-(2-methyl-4-sulfamoyl-phenyl)-acetamide] | 217.6 to 220.4 °C
Cc1cc(CC(=O)Nc2ccc(S(N)(=O)=O)cc2C)cc(Oc2cc(C#N)ccc2Cl)c1 [Compound I-147, 2-[3-(2-Chloro-5-cyano-phenoxy)-5-methyl-phenyl]-N-(2-methyl-4-sulfamoyl-phenyl)-acetamide] | 200.3 to 201.1 °C
N#Cc1cc(C#N)cc(Oc2c(Cl)ccc(CC(=O)Nc3ccccc3Cl)c2F)c1 [Compound I-28, 2-[4-Chloro-3-(3,5-dicyano-phenoxy)-2-fluoro-phenyl]-N-(2-chloro-phenyl)-acetamide] | 182.6 to 196.5 °C
CSCCNS(=O)(=O)c1ccc(NC(=O)Cc2ccc(C)c(Oc3cc(Cl)cc(C#N)c3)c2)c(C)c1 [Compound I-130, 2-[3-(3-Chloro-5-cyano-phenoxy)-4-methyl-phenyl]-N-[2-methyl-4-(2-methylsulfanyl-ethylsulfamoyl)-phenyl]-acetamide] | 155.6 to 156.6 °C
N#Cc1cc(Cl)cc(Oc2c(Cl)ccc(CC(=O)Nc3ccc(S(N)(=O)=O)cc3Cl)c2F)c1 [Compound I-100, 2-[4-Chloro-3-(3-chloro-5-cyano-phenoxy)-2-fluoro-phenyl]-N-(2-chloro-4-sulfamoyl-phenyl)-acetamide] | 234.4 to 234.9 °C
CCc1ccc(CC(=O)Nc2ccc(S(N)(=O)=O)cc2)cc1Oc1c(Cl)cccc1Cl [Compound I-20, 2-[3-(2,6-Dichloro-phenoxy)-4-ethyl-phenyl]-N-(4-sulfamoyl-phenyl)-acetamide] | 222.5 to 225 °C
Cc1cc(S(N)(=O)=O)ccc1NC(=O)Cc1cc(Oc2cccc(C#N)c2)c2occc2c1 [Compound I-145, 2-[7-(3-Cyano-phenoxy)-benzofuran-5-yl]-N-(2-methyl-4-sulfamoyl-phenyl)-acetamide] | 218.9 to 220 °C
Cc1cc(S(N)(=O)=O)ccc1NC(=O)Cc1ccc(Cl)c(Oc2c(C)cc(C#N)cc2C)c1 [Compound I-56, 2-[4-Chloro-3-(4-cyano-2,6-dimethyl-phenoxy)-phenyl]-N-(2-methyl-4-sulfamoyl-phenyl)-acetamide] | 232.1 to 234.6 °C
CC(C)CCC(=O)NS(=O)(=O)c1ccc(NC(=O)Cc2ccc(Cl)c(Oc3cc(Cl)cc(C#N)c3)c2F)c(Cl)c1.[Na] | 195.6 to 197 °C
CCc1ccc(CC(=O)Nc2ccc(S(N)(=O)=O)cc2)cc1Oc1cc(C#N)cc(C#N)c1Cl [Compound I-52, 2-[3-(2-Chloro-3,5-dicyano-phenoxy)-4-ethyl-phenyl]-N-(4-sulfamoyl-phenyl)-acetamide] | 119.7 to 123.3 °C
Cc1ccc(CC(=O)Nc2ccc(S(C)(=O)=O)cc2Cl)c(F)c1Oc1cc(C#N)cc(C(F)F)c1 [Compound I-112, N-(2-Chloro-4-methanesulfonyl-phenyl)-2-[3-(3-cyano-5-difluoromethyl-phenoxy)-2-fluoro-4-methyl-phenyl]-acetamide] | 179.9 to 182 °C
CCCCC(=O)NS(=O)(=O)c1ccc(NC(=O)Cc2ccc(Cl)c(Oc3cc(Cl)cc(C#N)c3)c2F)c(Cl)c1.[Na] | 157.6 to 159.2 °C
